US10815329B2, “Plasticized thermoset resin, and associated cured resin, method of curing, and article comprising cured resin” (The University of Massachusetts, priority 2016, dated 2020)

Legend:
[1] = Solubility of crosslinking agent HMTA in methyl benzoate by proton NMR with duroquinone internal standard; format: physicochemical; conditions: solvent methyl benzoate
Protocol: For compositional analysis, a Bruker 400 megahertz (MHz) NMR instrument was used. The solubility of crosslinking agent, HMTA, in methyl benzoate was measured by using duroquinone as the internal standard.
The high solubility of HMTA results directly from the plasticized phenol-formaldehyde prepolymer. […] J. P. Patel, et al., J. Polym. Sci. Part B: Polym. Phys., 2015, vol. 53, pp. 1519-1526. […] In this scheme methyl benzoate indirectly increases the interaction between the two reactants, the crosslinking agent HMTA and the phenol-formaldehyde prepolymer.

[2] = solvent furfural; cited from earlier work

solubility of HMTA in methyl benzoate (in words) [1]: virtually insoluble
SMILES: C1N2CN3CN1CN(C2)C3 [HMTA, hexamethylenetetramine]
solubility of HMTA in methyl benzoate ([1]; proton NMR, duroquinone internal standard): no more than 5 milligrams of HMTA per milliliter of methyl benzoate
solubility of HMTA in furfural [2]: less than two
